Results taken from patent publication US20170065670A1, “METHODS FOR TREATING IMMUNE MEDIATED NEUROLOGICAL DISEASES” (Trinity Therapeutics, Inc., priority 2005, published 2017).

Legend:
[1] = system: apo (non Cu, Zn containing) monomeric mutant SOD1 C57S (mSOD1C57S); assay: Reverse ELISA: inhibition of immune complexed IgG (PAP) binding to mutant SOD1; conditions: for mSOD1C57S (read at 405 nm): plates coated 24 h with mSOD1C57S, PAP/peptide 60 min, lower = more inhibition, positive control […]; for inhibition of mSOD1C57S binding to PAP (in words): summary of Table 3
Description: (§1) For this reason, a “reverse ELISA” technique was used to assess binding of the Fc region to ligands that bind to immune complexed IgG Fc. In these assays, the enzyme (HRP) was not covalently conjugated to the Fc portion of the secondary antibody. Rather, a preformed immune complex of peroxidase-rabbit (or mouse) anti-peroxidase IgG (“PAP” complex) was used. […] In the reverse ELISA system, an Fc CH2-CH3 cleft binding ligand (e.g., purified human C1q) was bound to microwell plates. In the absence of competitor, PAP complexes bound to the immobilized ligand and the reaction between HRP and its substrate produced a signal. This signal was reduced by polypeptides and compounds, such as those provided herein, that inhibited PAP binding to the immobilized ligand.
(§2) PAP complexes were formed as described in Example 2. PAP (100 μl) were pre-incubated with 100 μl of peptide for one hour, and control (200 μl of PAP) also was incubated for one hour. 100 μl of either PAP or PAP/peptide was added to Falcon microtiter plates that had been coated for 24 hours with either 0.8 μg/ml human wtSOD1 (Sigma-Aldrich) or apo (non Cu, Zn containing) monomeric mutant SOD1 C57S (mSOD1C57S). The PAP or peptide/PAP mixtures (100 μl) were added after one hour to either wt SOD1 or mSOD1C57S coated plates for 60 minutes. After washing, plates were incubated with ATBS for 15 minutes and read at 405 nm.

FcγIIa = assay: Reverse ELISA: inhibition of PAP immune complex binding to FcγIIa coated plates; conditions: summary of Table 2, FcR overall (FcγIIa, FcγIIb, FcγIII)
Description: as §1
Once the reverse ELISA protocol was established using the C1q assay, the assay was redesigned using FcγIIa, FcγIIb and FcγIII in place of C1q. Highly purified FcγIIa, FcγIIb and FcγIII were immunoadsorbed onto plastic microwells. […]
Falcon microtiter plates were coated with 1:10 dilutions of highly purified FcγIIa, FcγIIb and FcγIII and incubated for 24 hours. […] After washing, plates were incubated with ABTS substrate for 15 minutes and read at 405 nm.

human wt α-synuclein = assay: Reverse ELISA: inhibition of immune complexed IgG (PAP) binding to wt α-synuclein
Description: as §1
PAP complexes were formed mixing 2 μl of rabbit anti-peroxidase (Sigma) with 50 μl of peroxidase (Sigma) in 1 ml distilled water. PAP (100 μl) were pre-incubated with 100 μl of peptide for one hour. Control PAP (200 μl) also was incubated for one hour. 100 μl of either PAP or PAP/peptide was added to Falcon microtiter plates that had been coated for 24 or 48 hours with 167 μg/ml human wt α-synuclein (Sigma-Aldrich), and the plates were incubated for 60 minutes. After washing, plates were incubated with ATBS for 30 minutes and then read at 405 nm.

human C1q = assay: Reverse ELISA: inhibition of PAP immune complex binding to C1q coated plates; conditions: summary of Table 1
Description: as §1
PAP complexes were formed by mixing 2 μl of rabbit anti-peroxidase (Sigma Chemicals, St. Louis, Mo.) with 50 μl of peroxidase (Sigma-Aldrich, St. Louis, Mo.) in 1 ml distilled water. PAP (100 μl) were pre-incubated with 100 μl of peptide or human C1q (Quidel Corp., San Diego, Calif.) for one hour. The C1q/PAP and peptide/PAP mixtures (100 μl) were then incubated with C1q coated plates for 30 minutes. After washing, plates were incubated with 2-2′-azinobis-3-ethylbenzthiazoline-6-sulfonate (ATBS; Quidel Corp.) for 15 minutes and read at 405 nm.

human wtSOD1 = assay: Reverse ELISA: inhibition of immune complexed IgG (PAP) binding to wt SOD1; conditions: for wt SOD1 (read at 405 nm): plates coated 24 h with 0.8 μg/ml human wtSOD1, PAP/peptide 60 min, lower = more inhibition, positive control 2.900; for inhibition of wt SOD1 binding to PAP (in words): summary of Table 3
Description: as §1, §2

[2] = system: human wt tau protein (441 residues); assay: Reverse ELISA: inhibition of immune complexed IgG (PAP) binding to wt tau
Description: as §1
PAP complexes were formed by mixing 2 μl of rabbit anti-peroxidase with 50 μl of peroxidase in 1 ml distilled water. PAP (100 μl) were pre-incubated with 100 μl of peptide for one hour. Control PAP (200 μl) also was incubated for one hour. 100 μl of either PAP or PAP/peptide was added to Falcon microtiter plates that had been coated for 24 hours with 16.7 μg/ml human wt tau protein (441 residues; Sigma-Aldrich). The PAP or peptide/PAP mixtures (100 μl) were added after one hour to tau coated plates and incubated for 60 minutes. After washing, plates were incubated with ATBS for 15 minutes, and read at 405 nm.

[3] = system: human wt β amyloid peptide 1-40; assay: Reverse ELISA: inhibition of immune complexed IgG (PAP) binding to wt β-amyloid peptide 1-40; conditions: summary of Table 7
Description: as §1
Different fragments of the Aβ peptide contribute to the amyloid plaques pathognomic for AD, and these Aβ fragments appear to stimulate microglial activation and subsequent AD neuropathology. Thus, experiments were conducted to test Aβ 1-40 for binding to immune complexes, and to determine whether the inhibitors described herein can inhibit binding of PAP immune complexes to Aβ peptide. PAP complexes were prepared by mixing 2 μl of rabbit anti-peroxidase with 50 μl of peroxidase in 1 ml distilled water. […] After washing, plates were incubated with ATBS for 15 minutes and read at 405 nm.

Highly purified FcγIIa = Highly purified FcγIIa (UniProt P12318); assay: reverse ELISA: PAP without peptide on FcγIIa-coated plate
[4] = target: Human wt α-synuclein (Sigma-Aldrich) (human) (UniProt P37840); assay: reverse ELISA: PAP without peptide on α-synuclein-coated plate (24 h coating)
[5] = target: Preformed immune complex of peroxidase-rabbit anti-peroxidase IgG (PAP complex) (horseradish) (UniProt P00433); assay: reverse ELISA competition: peptide pre-incubated with PAP; competitor: immobilised human wt α-synuclein, plate coated 24 h
[6] = target: Preformed immune complex of peroxidase-rabbit anti-peroxidase IgG (PAP complex) (horseradish) (UniProt P00433); assay: reverse ELISA competition: peptide pre-incubated with PAP; competitor: immobilised mSOD1C57S
[7] = target: Preformed immune complex of peroxidase-rabbit anti-peroxidase IgG (PAP complex) (horseradish) (UniProt P00433); assay: reverse ELISA competition: peptide pre-incubated with PAP; competitor: immobilised human wt α-synuclein, plate coated 48 h
[8] = target: Preformed immune complex of peroxidase-rabbit anti-peroxidase IgG (PAP complex) (horseradish) (UniProt P00433); assay: reverse ELISA competition: peptide pre-incubated with PAP; competitor: immobilised human wt SOD1

Chain of Preformed immune complex of peroxidase-rabbit anti-peroxidase IgG (PAP complex) (horseradish) (P00433 31-338, one chain of several): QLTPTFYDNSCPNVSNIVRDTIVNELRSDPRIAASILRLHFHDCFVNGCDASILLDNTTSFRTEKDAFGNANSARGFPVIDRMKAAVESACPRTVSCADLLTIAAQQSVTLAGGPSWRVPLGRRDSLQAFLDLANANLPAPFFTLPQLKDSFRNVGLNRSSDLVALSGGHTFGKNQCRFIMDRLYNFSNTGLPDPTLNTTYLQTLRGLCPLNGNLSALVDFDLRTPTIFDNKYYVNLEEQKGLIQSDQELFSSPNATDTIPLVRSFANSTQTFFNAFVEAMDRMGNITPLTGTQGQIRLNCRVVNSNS
Chain of Preformed immune complex of peroxidase-rabbit anti-peroxidase IgG (PAP complex) (P00433 31-338, one chain of several): as above
Chain of Highly purified FcγIIa (P12318 34-217 limits assumed): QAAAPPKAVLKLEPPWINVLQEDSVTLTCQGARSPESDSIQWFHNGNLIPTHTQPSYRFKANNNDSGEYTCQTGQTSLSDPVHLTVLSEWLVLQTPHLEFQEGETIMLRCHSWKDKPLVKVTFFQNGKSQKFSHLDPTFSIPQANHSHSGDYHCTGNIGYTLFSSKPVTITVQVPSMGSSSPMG

APPDCAWHLGELVWCT
mSOD1C57S (read at 405 nm) [1]: 0.226 | inhibition of mSOD1C57S binding to PAP (in words) [1]: greatest inhibition | inhibition of mSOD1C57S binding to PAP (in words) ([1]; listed as peptide 16): best inhibition | inhibition of FcR binding to PAP (rank in words) (FcγIIa): greatest inhibition | Wt α-synuclein (read at 405 nm) (human wt α-synuclein; plates coated 24 h with 167 μg/ml α-synuclein, lower = more inhibition, positive control 1.433, substrate only 0.061): 0.088 | inhibition of α-synuclein binding to PAP (rank in words) (human wt α-synuclein; summary of Table 5): greatest inhibition | inhibition of C1q binding (rank in words) (human C1q): greatest inhibition | wt SOD1 (read at 405 nm) (human wtSOD1): 0.277 | inhibition of wt SOD1 binding to PAP (in words) (human wtSOD1): greatest inhibition | inhibition of wt SOD1 binding to PAP (in words) (human wtSOD1; listed as peptide 16): best inhibition | Wt tau protein (read at 405 nm) ([2]; plates coated 24 h with 16.7 μg/ml tau, lower = more inhibition, positive control 0.695, substrate only 0.060): 0.059 | inhibition of human wt tau protein binding to PAP (rank in words) ([2]; summary of Table 6): greatest inhibition

DCAWHLGELVWCT
mSOD1C57S (read at 405 nm) [1]: 0.592 | inhibition of mSOD1C57S binding to PAP (in words) ([1]; listed as peptide 2): inhibited | inhibition of human wt β amyloid peptide binding to PAP (rank in words) [3]: greatest inhibition | wt SOD1 (read at 405 nm) (human wtSOD1): 0.292 | inhibition of wt SOD1 binding to PAP (in words) (human wtSOD1; listed as peptide 2): inhibited

APPCARHLGELVWCT
inhibition of C1q binding (rank in words) (human C1q): next best result

Preformed immune complex of peroxidase-rabbit anti-peroxidase IgG (PAP complex) (from UniProt P00433 31-338)
OD 405 nm (Highly purified FcγIIa): 1.6 OD | OD 405 nm [4]: 1.43 OD

APPDCAWHLGELVWCT [Peptide … (SEQ ID NO:16)]
OD 405 nm [5]: 0.088 OD | OD 405 nm [6]: 0.226 OD | OD 405 nm [7]: 0.136 OD | OD 405 nm [8]: 0.277 OD
